As a reminder, the Ki is a measure of affinity in units of concentration, obtained from inhibition or displacement.

For test [1], the target named is T1, Human Recombinant Glucocorticoid Receptor (Homo sapiens, UniProt P04150).
T1 construct: This GR was a full-length steroid hormone receptor likely to be associated with heat-shock and other endogenous proteins; host or cells: baculovirus-infected insect cells
T1 sequence (P04150 1-777): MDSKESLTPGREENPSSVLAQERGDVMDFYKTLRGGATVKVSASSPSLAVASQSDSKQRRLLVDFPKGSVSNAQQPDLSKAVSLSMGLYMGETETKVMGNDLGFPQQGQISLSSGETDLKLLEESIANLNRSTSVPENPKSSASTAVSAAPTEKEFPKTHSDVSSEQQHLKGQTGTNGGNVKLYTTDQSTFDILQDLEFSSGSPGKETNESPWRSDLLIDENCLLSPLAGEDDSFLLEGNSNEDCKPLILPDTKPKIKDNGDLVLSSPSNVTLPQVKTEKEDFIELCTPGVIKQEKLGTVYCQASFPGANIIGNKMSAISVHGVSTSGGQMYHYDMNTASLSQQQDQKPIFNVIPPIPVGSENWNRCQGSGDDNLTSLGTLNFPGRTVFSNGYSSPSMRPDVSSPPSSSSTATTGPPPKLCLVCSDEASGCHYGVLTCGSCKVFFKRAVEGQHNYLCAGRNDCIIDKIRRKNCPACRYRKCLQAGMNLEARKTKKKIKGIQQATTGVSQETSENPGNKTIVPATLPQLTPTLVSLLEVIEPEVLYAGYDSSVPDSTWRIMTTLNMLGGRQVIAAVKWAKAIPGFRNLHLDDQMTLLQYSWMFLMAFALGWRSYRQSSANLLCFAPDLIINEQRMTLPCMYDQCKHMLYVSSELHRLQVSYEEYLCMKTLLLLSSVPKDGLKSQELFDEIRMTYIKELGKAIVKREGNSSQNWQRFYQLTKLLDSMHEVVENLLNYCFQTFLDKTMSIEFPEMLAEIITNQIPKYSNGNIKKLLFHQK
Kind of test: Glucocorticoid receptor binding displacement assay with 3H-dexamethasone. Particulars: displacement of 2.5 nM 3H-dexamethasone; Ki from IC50 by Cheng-Prusoff; read-out: GR Binding Ki. The procedure: The source of the receptor was recombinant baculovirus-infected insect cells. This GR was a full-length steroid hormone receptor likely to be associated with heat-shock and other endogenous proteins.
For the Primary Screen, test compounds were tested at 1 μM in duplicate. These compounds were diluted from 10 mM stock in 100% DMSO. After dilution to 100 μM, 5 μl were added to 245 μl assay buffer to obtained 2 μM compound and 2% DMSO.
For the IC50 determinations, test compounds were tested at 6 concentrations in duplicate (concentration range depends on % inhibition binding that was obtained in the Primary Screen). Test compounds were diluted from 10 mM stock in 100% DMSO. The tested solutions were prepared at 2× final assay concentration in 2% DMSO/assay buffer.
All reagents and the assay plate were kept on ice during the addition of reagents. […] After the additions, the incubation mixture was mixed and incubated for 2.5 hrs at 4° C.
After 2.5 hrs incubation, unbound counts were removed with dextran coated charcoal (DCC) as follows: 25 μl of DCC solution (10% DCC in assay buffer) was added to all wells and mixed (total volume 225 μl). The plate was centrifuged at 4000 rpm for 10 minutes at 4° C. 75 μl of the supernatants (i.e.⅓ of total volume) was carefully pipetted into an optiplate. 200 μl of scintillation cocktail were added (Microscint-40, Packard Bioscience. B.V.). The plate was vigorously shaken for approx. 10 minutes and counted on Topcount.
The IC50 values were converted to Ki (the inhibition constant) using the Cheng-Prusoff equation. Test results are presented in Tablel.
Reagents: Assay buffer: 10 mM potassium phosphate buffer pH 7.6 containing 5 mM DTT, 10 mM sodium molybdate, 100 μM EDTA and 0.1% BSA.

Test [2] has as its target T2, glucocorticoid receptors (GR) in SW1353/MMTV-5 cells (Homo sapiens, UniProt P04150).
T2 construct: contains endogenous glucocorticoid receptors; endogenous in cells; host or cells: SW1353/MMTV-5 (human chondrosarcoma, stably transfected with the pMAMneo-Luc reporter only)
T2 sequence (P04150 1-777): T1 sequence (P04150 1-777)
Kind of test: GR functional assay using SW1353/MMTV-5 cells (MMTV-luciferase reporter). It counts as cell-based. The procedure:
SW1353/MMTV-5 is an adherent human chondrosarcoma cell line that contains endogenous glucocorticoid receptors. It was transfected with a plasmid (pMAMneo-Luc) encoding firefly luciferase located behind a glucocorticoid-responsive element (GRE) derived from a viral promoter (long terminal repeat of mouse mammary tumor virus). A stable cell line SW1353/MMTV-5 was selected with geneticin, which was required to maintain this plasmid.
SW1353/MMTV-5 cells were distributed in 96-well plates and incubated in medium (without geneticin) for 24 hrs (in the absence of CO2).
On the technique in general: In a reporter assay the amount or activity of a reporter protein is the signal.

For `CCOC[C@]12Cc3cnn(-c4ccc(F)cc4)c3C=C1CCN(S(=O)(=O)c1ccc(N3CCOCC3)nc1)C2` [Example 1, (R)-4a-Ethoxymethyl-1-(4-fluorophenyl)-6-[[6-(4-morpholinyl)-3-pyridinyl]sulfonyl]-1,4,7,8-tetrahydro-1,2,6-triazacyclopenta[b]naphthalene], the Ki in test [1] was less than 0.5 nM; in test [2], less than 10 nM.
As to `COC(=O)[C@]12Cc3cnn(-c4ccc(F)cc4)c3C=C1CCN(S(=O)(=O)c1ccc(N3CCOCC3)nc1)C2` [Example 1c, (R)-1-(4-Fluorophenyl)-6-(6-morpholin-4-ylpyridine-3-sulfonyl)-1,4,5,6,7,8-hexahydro-1,2,6-triazacyclopenta[b]naphthalene-4a-carboxylic acid methyl ester], the Ki in test [1] was greater than 1 nM; in test [2], greater than 50 nM.
`O=S(=O)(c1ccc(N2CCOCC2)nc1)N1CCC2=Cc3c(cnn3-c3ccc(F)cc3)C[C@]2(CO)C1` [Example 1d, [(R)-1-(4-Fluorophenyl)-6-[[6-(4-morpholinyl)-3-pyridinyl]sulfonyl]-1,4,7,8-tetrahydro-1,2,6-triazacyclopenta[b]naphthalen-4a-yl]methanol]: the Ki in test [1] is greater than 1 nM; in test [2], greater than 50 nM.
On the same counts, the results for `CCOC[C@]12Cc3cnn(-c4ccc(F)cc4)c3C=C1CCN(S(=O)(=O)c1cccnc1)C2` [Example 2, (R)-4a-Ethoxymethyl-1-(4-fluorophenyl)-6-[[3-pyridinyl]sulfonyl]-1,4,7,8-tetrahydro-1,2,6-triazacyclopenta[b]naphthalene] are 0.5 to 1 nM and 10 to 50 nM.
Regarding `CCOC[C@]12Cc3cnn(-c4ccc(F)cc4)c3C=C1CCN(S(=O)(=O)c1cnc3c(c1)OCCN3C)C2` [Example 3], the Ki is less than 0.5 nM in test [1] and 10 to 50 nM in test [2].
In the case of `CCOC[C@]12Cc3cnn(-c4ccc(F)cc4)c3C=C1CCN(S(=O)(=O)c1ccc(N3CCCC3)nc1)C2` [Example 4, (R)-4a-Ethoxymethyl-1-(4-fluorophenyl)-6-[[6-(1-pyrrolidinyl)-3-pyridinyl]sulfonyl]-1,4,7,8-tetrahydro-1,2,6-triazacyclopenta[b]naphthalene], the inhibition constant (Ki) in test [1] is greater than 1 nM; in test [2] it was 10 to 50 nM.
Consider `COC[C@]12Cc3cnn(-c4ccc(F)cc4)c3C=C1CCN(S(=O)(=O)c1ccc(N3CCCC3)nc1)C2` [Example 5, (R)-1-(4-Fluorophenyl)-4a-methoxymethyl-6-[[6-(1-pyrrolidinyl)-3-pyridinyl]sulfonyl]-1,4,7,8-tetrahydro-1,2,6-triazacyclopenta[b]naphthalene], for which the Ki in test [1] lay in the range of 0.5 to 1 nM; in test [2], 10 to 50 nM.
On the same counts, the results for `CCOC[C@]12Cc3cnn(-c4ccc(F)cc4)c3C=C1CCN(S(=O)(=O)c1ccc(N3CCC3)nc1)C2` [Example 6, (R)-6-[[6-(1-Azetidinyl)-3-pyridinyl]sulfonyl]-4a-ethoxymethyl-1-(4-fluorophenyl)-1,4,7,8-tetrahydro-1,2,6-triazacyclopenta[b]naphthalene] are 0.5 to 1 nM and 10 to 50 nM.
On to `CCOC[C@]12Cc3cnn(-c4ccc(F)cc4)c3C=C1CCN(S(=O)(=O)c1ccc(NC)nc1)C2` [Example 7, (R)-4a-Ethoxymethyl-1-(4-fluorophenyl)-6-[[6-methylamino-3-pyridinyl]sulfonyl]-1,4,7,8-tetrahydro-1,2,6-triazacyclopenta[b]naphthalene], for which the Ki was less than 0.5 nM in test [1] and 10 to 50 nM in test [2].
For the compound `O=S(=O)(c1ccc(N2CC[C@@H](O)C2)nc1)N1CCC2=Cc3c(cnn3-c3ccc(F)cc3)C[C@]2(CN2CC[C@H](O)C2)C1` [Example 46, (S)-1-{(S)-1-(4-Fluorophenyl)-6-[6-((R)-3-hydroxy-pyrrolidin-3-ol)-pyridine-3-sulfonyl]-1,4,5,6,7,8-hexahydro-1,2,6-triaza-cyclopenta[b]naphthalene-4a-ylmethyl}-pyrrolidin-3-ol], in test [1], the Ki is greater than 1 nM.

These data come from patent publication US8598154B2 (Corcept Therapeutics, Inc., priority 2010, dated 2013).
